Experimental findings from doi:10.1101/815415v1 (biorxiv, 2019) are described below.

For this experiment, the target named is xylanase from Bacillus circulans (BCX) (Niallia circulans, UniProt P09850). Kind of experiment: NMR titration, 1H-15N HSQC 2D lineshape fit. The format is binding. The following applies: 25 mM sodium acetate, pH 5.8, 6% D2O, 20 °C; active site -1/-2 subsites.

The structures appear in SMILES notation.

A word on the Kd: it is the constant that tells how readily two partners part at equilibrium. A high value points to lower affinity.

`OC1OC[C@@H](O[C@@H]2OC[C@@H](O)[C@H](O)[C@H]2O)[C@H](O)[C@H]1O` (stereo partly shown) [X2, xylobiose]: the Kd was 10 mM.
